For assay [1], the system named is MDA-MB-231 cells. Put plainly: Morphology of MDA-MB-231 cells under drug treatment in normal versus thick collagen. It counts as cell-based, human. The conditions noted are these: for cell shape and protrusions / cell morphology versus control: normal and thick collagen; for cell shape and protrusions / F-actin accumulation on the cell periphery: day2; for cell morphology versus control: Y27632 30 μM, CK666 50 μM, SMIFH2 50 μM; for effect on cell morphology: normal collagen. The method, then:
(§1) To investigate the specific molecular mechanism behind the elevated migration of MDA-MB-231 cells in thick collagen, the following drugs were tested in these gels: pan-MMP inhibitor GM6001 (20 μM), potent selective Cdc42 inhibitor ML141 (10 μM), ROCK inhibitor Y27632 (30 μM), ARP2/3 inhibitor CK666 (50 μM), formin inhibitor SMIFH2 (50 μM) and Rac1 inhibitors NSC23766 (100 μM) and EHT1864 (20 μM). First cell morphology was traced and quantified. […] The graphic illustration of each morphological index can be found in FIG. 12B.
(§2) Drugs were reconstituted and stored following manufacturers' recommendations and diluted in culture media to working concentrations. Specifically, 20 μM pan-MMPs inhibitor GM6001(Abcam, ab120845), 30 μM ROCK inhibitor Y27632 (Abcam, ab144494), 10 μM Cdc42 inhibitor ML141 (Calbiochem®217708), 50 μM formin inhibitor SMIFH2 (Abcam, ab218296), 50 μM ARP2/3 inhibitor CK666 (Abcam, ab141231), 100 μM Rac1 inhibitor NSC23766, 20 μM Rac1 inhibitor EHT1864 (Cayman 17258) were used. Fresh media mixed with specific drug were prepared right before experiment and replaced daily. In the drug assays, at least two independent experiments were performed with at least two replicates (technical duplicates) in each experiment.
In this equation, N is the total step number, n is the n-th step, x,y are the x,y coordinates respectively. For morphology analysis, z projected tilescan images were segmented and analyzed by in-house MATLAB codes. Segmentation performance was validated, with wrong segmentation manually corrected or removed. For difficult automatic segmentation data such as the Y27632 treated condition, manually tracked data were supplemented. The definitions of elongation, compactness, sphericity and shape variance were described in FIG. 4B (Liu, Scientific Reports 2022, 12, 791). A custom ImageJ script was used to derive the colocalization of the YAP/TAZ signal in the nucleus and cytoplasm. Specifically, the central plane of each cell is first extracted. DAPI and YAP/TAZ channels are then used to produce masks for cell nucleus and cell body respectively. Nucleus YAP/TAZ is calculated by averaging YAP/TAZ intensity within the nucleus mask and cytoplasmic YAP/TAZ is calculated by averaging YAP/TAZ intensity outside the nucleus mask but within cell body. To note, only YAP/TAZ of focal plane is used for average calculation. For thick collagen bundle size measurement, “Analyze Particle” function from Fiji was used.

Assay [2] has as its system PDGF-induced lamellipodia formation. The following applies: cited from earlier work.
Assay [3] deals with MDA-MB-231 cells. Nature of the assay: Migration inhibition drug assay: MDA-MB-231 cell migration in 3D collagen. The format is cell-based, human. The conditions noted are these: thick collagen, day0 and day1; GM6001 20 μM, Y27632 30 μM, ML141 10 μM, SMIFH2 50 μM, NSC23766 100 μM. The method, then:
as §1
Apart from morphology signatures, cell migration was also tracked (FIG. 5A-C, FIG. 13A-B and FIG. 18A). […] GM6001-treated MDA-MB-231 cells in thick collagen migrated as actively as the DMSO control, both increased compared to cells in normal collagen. […] However, the interpretation of NSC23766 was confounded by the poor performance of another […]. NSC23766 binds directly to Rac1 and blocks the interaction between GEF Trio or Tiam (Gao et al., Proceedings Of The National Academy Of Sciences Of The United States Of America, 2004, 101, 7618-7623). EHT1864 binds to Rac1 but it is an allosteric inhibitor for guanine association. […] The differential preference between MDA-MB-231 cells for a stiff substrate and metastatic ovarian cancer cells (MOCC) for compliant substrate for migration (McGrail et al., Journal of Cell Science 2014, 127, 2621-2626); McGrail et al., Physical Biology 2015, 12, 026001) may be dictated by Rac1 and […], respectively.
as §2
Imaging was performed using a Leica SP8 confocal microscope. Time-lapse imaging (XYZT mode) was taken with a 20× objective (0.75 NA), with time interval set to 3 minutes or 6 minutes and z-step size set to 2 μm. Day0 time-lapse imaging was acquired between around 0hr to 12 hrs post embedding cells into gels. Day1 time-lapse imaging was acquired between around 24 hrs to 36 hrs post gel-embedment. Overview tilescan images were taken at day1, day2 or day5 respectively.
To track cell migration, XYZT data were first reduced in dimensions by conducting standard deviation projection along the z-axis. The XYT data were then processed by TrackMate in Fiji and produced cell trajectories. Trajectories were exported to MATLAB to calculate average speed and mean squared displacement. Average speed specifically refers to the mean of the absolute value of the net displacement of the cell center per hour. Mean squared displacements were computed with the following equation (Gorelik, Nature Protocols 2014, 9, 1931-1943): […]

For assay [4], the system named is human pancreatic cancer cells PANC-1. The conditions noted are these: aligned matrix fiber; cited from earlier work.
Another assay relates to OVCA429. The following applies: 2D conditions; cited from earlier work.
The subject of a further assay is SKOV3ip. The conditions noted are these: 2D conditions; cited from earlier work.
For assay [5], the system named is D1 murine mesenchymal stem cells (MSCs). Nature of the assay: MSC migration in collagen gels, time-lapse confocal cell tracking. The following applies: MSCs treated with inhibitors of myosin-based contractility, day 6. The method, then:
To determine how island architecture modulates stem cell behavior, DI MSC's were seeded in gels that were adherent to polydopamine covered glass (FIG. 37). Polydopamine allows for collagen to remain anchored to surfaces for imaging and prevents total compaction of the gel during experiments (Park et al., ACS Applied Materials & Interfaces 2019, 11, 23919-23925). MSC migration in gels were then visualized. To capture cell migration in these gels, a stable LifeAct-RFP dye was transduced into MSCs and then these encapsulated cells were imaged with time-lapse confocal fluorescence microscopy. Cell tracking analysis was performed to determine migration metrics (FIG. 22A). The cells both 1 day after seeding and 6 days after seeding were imaged for 12 hour timelapses. […] After 6 days of culture, differences in migratory behavior were observed between MSCs cultured in different island gels (FIG. 22B).
D1 MSCs or D1 MSC-LifeActRFP cells were mixed with the collagen solution prior to gelation to achieve a final cell concentration of 15000 cells/ml. Cells were cultured in 50%/50% mixture of the osteogenic induction medium and adipogenic induction medium (differentiation medium). The differentiation medium contained 50 μg/ml L-ascorbic acid (MilliporeSigma), 10 mM β-glycerophosphate (MilliporeSigma), and 0.1 μM dexamethasone (MilliporeSigma) in the DMEM growth medium.
MSC time lapses were performed in 12 well glass bottom dishes which had been polydopamine coated. 12 hour time lapses were taken on Day 1 and Day 6. Automatic cell segmentation was obtained using Imaris (Oxford Instruments). Manual filtering was done to determine which cells were to be used for downstream analysis. From these segmentations, cell movement was tracked and metrics such as mean speed, sphericity, and migration track length over the timelapse were obtained. Mean speed is defined as the average of instantaneous speeds between timepoints.

Assay [6] relates to chronic lymphocytic leukemia cells. The following applies: cited from earlier work.

Here are results for eight molecules from US20240166723A1, “MECHANOCHEMICAL GENERATION OF NOVEL COLLAGEN GEL ARCHITECTURES AND SCAFFOLDS” (Yale University, priority 2022, published 2024).

In the case of `Cc1[nH]c2ccccc2c1CCNC(=O)c1ccccc1F` [CK666], the “cell shape and protrusions” value in the assay with MDA-MB-231 cells [1] was “elongated and stretched”. Further, the “cell morphology versus control” value with MDA-MB-231 cells [1] (NSC23766 100 μM) is “distinct morphologies compared with control”.

For `O=c1cc(CN2CCOCC2)occ1OCCCCCSc1ccnc2cc(C(F)(F)F)ccc12` [EHT1864], the “effect on cell morphology” value in the assay with MDA-MB-231 cells [1] is “all cells are round”. For the same molecule, the PDGF-induced lamellipodia formation result in assay [2] is on record as “can inhibit PDGF-induced lamellipodia formation”.

Regarding `CNC(=O)[C@H](Cc1c[nH]c2ccccc12)NC(=O)[C@@H](CC(=O)NO)CC(C)C` [GM6001], the MDA-MB-231 cell migration entry in the assay on MDA-MB-231 cells [3] is recorded as “failed to inhibit MDA-MB-231 cell migration”. Further, the “effect on cell morphology” value in the assay on MDA-MB-231 cells [1] is recorded as “all cells are round”.

For the molecule `COc1ccc(C2CC(c3ccccc3)=NN2c2ccc(S(N)(=O)=O)cc2)cc1` (centres unmarked) [ML141], the MDA-MB-231 cell migration result in the assay on MDA-MB-231 cells [3] is “did not show significant inhibition”. In addition, the “effect on cell morphology” value in the assay on MDA-MB-231 cells [1] is given as “all cells are round”. Moreover, the cell movement result in assay [4] is “moved faster in aligned matrix fiber regardless of ML141 treatment”. The inhibition of migration entry in the assay with OVCA429 and with SKOV3ip was “does inhibit” throughout.

Consider `O=S(=O)(c1cccc2c(I)cccc12)N1CCCNCC1` [ML-7], for which, in assay [5], the “cell migration track length” value was “decreases in cell migration track length”.

`CCN(CC)CCCC(C)Nc1nc(C)cc(Nc2ccc3nc(C)cc(N)c3c2)n1` (centres unmarked) [NSC23766]: the MDA-MB-231 cell migration entry in the assay on MDA-MB-231 cells [3] was “significantly reduced MDA-MB-231 cell migration”. For the same molecule, in the assay with MDA-MB-231 cells [1] (NSC23766 100 μM), the cell size entry is “smaller than most other drug conditions” and the “cell morphology versus control” value is recorded as “distinct morphologies compared with control”. In the assay on MDA-MB-231 cells [1], the “F-actin accumulation on the cell periphery” value is listed as “clearly visible” and the “effect on cell morphology” value is given as “all cells are round”. For the same molecule, the “cell migration track length” value in assay [5] is on record as “decreases in cell migration track length”. For the same molecule, in assay [4], the cell movement result is “inhibited cell movement, regardless of collagen fiber orientation”. Besides, in assay [6], the proliferation entry is given as “proliferation arrest”.

`O=C1NC(=S)N(c2cccc(Br)c2)C(=O)/C1=C/c1ccco1` [SMIFH2]: the MDA-MB-231 cell migration entry with MDA-MB-231 cells [3] was “significantly reduced MDA-MB-231 cell migration”. Further, in the assay with MDA-MB-231 cells [1], the “F-actin accumulation on the cell periphery” value is recorded as “lacked F-actin accumulation on the cell periphery”; the “cell shape and protrusions” value was “round and lacked cell peripheral fluctuations”; the “effect on cell morphology” value is on record as “all cells are round”. Moreover, in the assay on MDA-MB-231 cells [1] (NSC23766 100 μM), the “cell morphology versus control” value is “distinct morphologies compared with control”.

`C[C@@H](N)[C@H]1CC[C@H](C(=O)Nc2ccncc2)CC1` [Y27632]: the MDA-MB-231 cell migration entry in the assay on MDA-MB-231 cells [3] is “significantly reduced MDA-MB-231 cell migration”. Also, the “cell shape and protrusions” value in the assay on MDA-MB-231 cells [1] is “extremely long cell protrusions”. The “cell morphology versus control” value with MDA-MB-231 cells [1] (NSC23766 100 μM) is “distinct morphologies compared with control”. The “cell migration track length” value in assay [5] is “decreases in cell migration track length”.
